Test results taken from patent US20230322724A1, “HETEROCYCLIC COMPOUNDS AS CBP/EP300 BROMODOMAIN INHIBITORS” (AURIGENE ONCOLOGY LIMITED, priority 2020, published 2023).
Where “and” joins values, the source holds several entries; their conditions need not be identical. Identical values can stand only once.

Legend:
[1] = molecular target: T1, recombinant CREBBP bromodomain (Homo sapiens, UniProt Q92793); assay: CBP TR-FRET displacement assay; type: binding; details: for IC50: dose-response, read-out: IC50 (group A, B, C); for inhibition at 10 µM: compound at 10 μM
T1 construct: recombinant CREBBP bromodomain obtained from BPS Bioscience, USA; purchased BPS Bioscience, USA
T1 sequence (Q92793 1085-1192 limits assumed): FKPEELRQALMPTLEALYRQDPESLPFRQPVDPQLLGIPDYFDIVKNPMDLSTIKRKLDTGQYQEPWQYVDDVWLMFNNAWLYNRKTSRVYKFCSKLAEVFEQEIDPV
In short: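 CREBBP bromodomain (50 nM) preincubated 30 min at room temperature with 500 nM biotinylated ligand in HEPES pH 7.5 buffer with TCEP, then 60 min with compound. Eu-anti-His/APC-streptavidin TR-FRET 665/615 nm ratio read; IC50 from sigmoidal dose-response fit.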

[2] = molecular target: T2, recombinant P300 bromodomain (Homo sapiens, UniProt Q09472); assay: P300 TR-FRET displacement assay; type: binding; details: dose-response, read-out: IC50 (group A, B, C)
T2 construct: recombinant P300 bromodomain obtained from BPS Bioscience, USA; purchased BPS Bioscience, USA
T2 sequence (Q09472 1049-1156 limits assumed): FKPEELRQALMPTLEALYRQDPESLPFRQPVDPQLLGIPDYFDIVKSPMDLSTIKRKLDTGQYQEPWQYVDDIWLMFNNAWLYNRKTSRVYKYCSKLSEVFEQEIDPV
Description: The potency of compounds to inhibit P300 enzyme was tested in a TR-FRET displacement assay using recombinant P300 bromodomain obtained from BPS Bioscience, USA. The assay buffer was 50 mM HEPES (pH 7.5), 50 mM NaCl, 0.008% Brij 35, 0.01% BSA, 1 mM TCEP. 50 nM of P300 & 500 nM of Biotinylated ligand was incubated at room temperature for 30 minutes, the reaction was initiated by adding the pre-incubated enzyme ligand mixture to the test compounds. After 60 min incubation, the reaction was stopped by the addition of stop mix containing 1 nM of LANCE Europium-anti-6xHis antibody (Perkin Elmer, USA) and 40 nM of Sure Light Allophycocyanin-Streptavidin (Perkin Elmer, USA). Fluorescence emission of the samples at 665 and 615 nm were measured at an excitation of 340 nm and their ratio was plotted against the compound concentrations to generate dose-response curve.
Selected compounds of the present invention were screened in the above-mentioned assay procedures and IC50 values were determined by fitting the dose-response data to sigmoidal curve fitting equation using Graph pad prism software V7.

Structure (SMILES)	IC50 [1]	IC50 [2]	inhibition at 10 µM [1]
COc1cc(N2CCN(C)c3cc(N4CCC(O)C4)c(C#N)cc32)c2cc(C)c(=O)n(C)c2c1 (stereo not shown) [Example 20]	< 50 nM	25 to 50 nM	–
COc1cc(N2CCN(C)c3cc(N4CCN(C(C)=O)CC4)c(C#N)cc32)c2cc(C)c(=O)n(C)c2c1 [Example 23]	< 50 nM	< 25 nM	–
COc1cc(N2CCN(C3CC3)c3cc(N4CCN(C)CC4)c(C#N)cc32)c2cc(C)c(=O)n(C)c2c1 [Example 25]	< 50 nM	25 to 50 nM	–
Cc1cc2c(N3CCN(C)c4cc(-c5cnn(C)c5)c(C#N)cc43)cc(OCC3CCCN(C)C3)cc2n(C)c1=O (stereo not shown) [Example 35]	< 50 nM	< 25 nM	96%
Cc1cc2c(N3CCN(C)c4cc(-c5cnn(C)c5)c(C#N)cc43)cc(OCCN3CCOCC3)cc2n(C)c1=O [Example 36]	< 50 nM	< 25 nM	100%
COCCOc1cc(N2CCN(C)c3cc(-c4cnn(C)c4)c(C#N)cc32)c2cc(C)c(=O)n(C)c2c1 [Example 37]	< 50 nM	< 25 nM	100%
Cc1ccc2[nH]c(=O)c(C)cc2c1N1CCN(C)c2cc(-c3cnn(C)c3)c(C#N)cc21 [Example 38]	< 50 nM	> 50000 nM	98%
Cc1cc2c(N3CCN(C)c4cc(-c5cnn(C)c5)c(C#N)cc43)cc(OCCN(C)C)cc2n(C)c1=O [Example 39]	< 50 nM	< 25 nM	–
Cc1cc2c(N3CCN(C)c4cc(-c5cnn(C)c5)c(C#N)cc43)cc(OC3COC3)cc2n(C)c1=O [Example 40]	< 50 nM	25 to 50 nM	–
Cc1cc2c(N3CCN(C)c4cc(-c5cnn(C)c5)c(F)cc43)cc(N3CCOCC3)cc2n(C)c1=O [Example 48]	< 50 nM	< 25 nM	–
Cc1cc2c(N3CCN(C)c4cc(-c5cnn(C)c5)c(C#N)cc43)nccc2[nH]c1=O [Example 54]	> 10 nM	> 50000 nM	91%
Cc1cc2c(N3CCN(C)c4cc(-c5cnn(C)c5)c(C=O)cc43)cccc2[nH]c1=O [Example 57, 1-Methyl-7-(1-methyl-1H-pyrazol-4-yl)-4-(3-methyl-2-oxo-1,2-dihydroquinolin-5-yl)-1,2,3,4-tetrahydroquinoxaline-6-carbaldehyde]	> 10 nM	> 50000 nM	–
Cc1cc2c(N3CCN(C)c4cc(-c5cnn(C)c5)c(C#N)cc43)cc(OCCO)cc2n(C)c1=O [Example 60, 4-(7-(2-Hydroxyethoxy)-1,3-dimethyl-2-oxo-1,2-dihydroquinolin-5-yl)-1-methyl-7-(1-methyl-1H-pyrazol-4-yl)-1,2,3,4-tetrahydroquinoxaline-6-carbonitrile]	< 50 nM	< 25 nM	–
COc1cc(N2CCNc3cc(-c4cnn(C)c4)c(C#N)cc32)c2cc(C)c(=O)n(C)c2c1 [Example 62, 4-(7-methoxy-1,3-dimethyl-2-oxo-1,2-dihydroquinolin-5-yl)-7-(1-methyl-1H-pyrazol-4-yl)-1,2,3,4-tetrahydroquinoxaline-6-carbonitrile]	> 10 nM	25 to 50 nM	–
COC(=O)c1cc2c(cc1C#N)N(c1cc(OC)cc3c1cc(C)c(=O)n3C)CCN2C [Example 67, methyl 7-cyano-1-(7-methoxy-1,3-dimethyl-2-oxo-1,2-dihydroquinolin-5-yl)-4-methyl-1,2,3,4-tetrahydroquinoxaline-6-carboxylate]	< 50 nM	25 to 50 nM	–
Cc1cc2c(N3CCN(C)c4cc(-c5cnn(C)c5)c(C#N)cc43)cc(OCC(=O)O)cc2n(C)c1=O [Example 71, 2-((5-(7-Cyano-4-methyl-6-(1-methyl-1H-pyrazol-4-yl)-3,4-dihydroquinoxalin-1(2H)-yl)-1,3-dimethyl-2-oxo-1,2-dihydroquinolin-7-yl)oxy)acetic acid]	< 50 nM	< 25 nM	–
Cc1cc2c(N3CCN(C)c4cc(-c5cnn(C)c5)ccc43)cc(OCC(=O)O)cc2n(C)c1=O [Example 72, 2-((1,3-Dimethyl-5-(4-methyl-6-(1-methyl-1H-pyrazol-4-yl)-3,4-dihydroquinoxalin-1(2H)-yl)-2-oxo-1,2-dihydroquinolin-7-yl)oxy)acetic acid]	< 50 nM	< 25 nM	–

Structure (SMILES)	IC50 [1]	IC50 [2]	inhibition at 10 µM [1]
COc1cc(N2CCN(C)c3ccc(-c4cnn(C)c4)cc32)c2cc(C)c(=O)n(C)c2c1 [Example 80]	> 10 nM	> 50000 nM	–
COc1cc(N2CCN(C)c3cc(-c4cnn(C)c4)c(S(=O)(=O)NC(C)=O)cc32)c2cc(C)c(=O)n(C)c2c1 [Example 108]	< 50 nM	< 25 nM	–
Cc1cc2c(N3CCN(C)c4cc(-c5cnn(C)c5)ncc43)cc(N3CCOCC3)cc2n(C)c1=O [Example 134]	< 50 nM and 51 to 100 nM	> 50000 nM	–
Cc1cc2c(N3CCN(C)c4cc(-c5cnn(C)c5)ncc43)cc(N3C[C@@H]4C[C@H]3CO4)cc2n(C)c1=O [Example 146, 7-((1S,4S)-2-oxa-5-azabicyclo[2.2.1]heptan-5-yl)-1,3-dimethyl-5-(1-methyl-7-(1-methyl-1H-pyrazol-4-yl)-2,3-dihydropyrido[3,4-b]pyrazin-4(1H)-yl)quinolin-2(1H)-one]	< 50 nM	> 50000 nM	–
CNC(=O)c1ccc(-c2cc3c(cc2C(F)F)N(c2cccc4c2cc(C)c(=O)n4C)CCC3)cn1 [Example 176]	< 50 nM	< 25 nM	–
Cc1cc2c(N3CCCc4cc(-c5cnn(C)c5)c(C(F)F)cc43)cc(N3CCOCC3)cc2n(C)c1=O [Example 178]	< 50 nM	< 25 nM	–
COc1cc(N2CCc3cc(-c4cnn(C)c4)c(C(F)F)cc32)c2cc(C)c(=O)n(C)c2c1 [Example 195, 5-(6-(Difluoromethyl)-5-(1-methyl-1H-pyrazol-4-yl)indolin-1-yl)-7-methoxy-1,3-dimethylquinolin-2(1H)-one]	< 50 nM	25 to 50 nM	–
CNC(=O)C1CCN(c2cc3c(cc(C)c(=O)n3C)c(N3CCCc4cc(-c5cnn(C)c5)c(C(F)F)cc43)n2)C1 (stereo not shown) [Example 201, 1-(5-(7-(Difluoromethyl)-6-(1-methyl-1H-pyrazol-4-yl)-3,4-dihydroquinolin-1(2H)-yl)-1,3-dimethyl-2-oxo-1,2-dihydro-1,6-naphthyridin-7-yl)-N-methylpyrrolidine-3-carboxamide]	< 50 nM	< 25 nM	–
Cc1cc2c(N3CCCc4cc(-c5cnn(C)c5)c(C(F)F)cc43)nc(N3CC[C@@H](O)C3)cc2n(C)c1=O [Example 209]	< 50 nM	< 25 nM	–
Cc1cc2c(N3CCCc4cc(-c5cnn(C)c5)c(C(F)F)cc43)nc(N3CC[C@H](O)C3)cc2n(C)c1=O [Example 210]	< 50 nM	25 to 50 nM	–
CNC(=O)[C@@H]1CCN(c2cc3c(cc(C)c(=O)n3C)c(N3CCCc4cc(-c5cnn(C)c5)c(C(F)F)cc43)n2)C1 [Example 211]	< 50 nM	< 25 nM	–
CNC(=O)[C@H]1CCN(c2cc3c(cc(C)c(=O)n3C)c(N3CCCc4cc(-c5cnn(C)c5)c(C(F)F)cc43)n2)C1 [Example 212]	< 50 nM	< 25 nM	–
Cc1cc2c(N3CCCc4cc(-c5cnn(C)c5)c(C(F)F)cc43)nc(N3C[C@@H](O)[C@H](O)C3)cc2n(C)c1=O [Example 215]	< 50 nM	< 25 nM	–
Cc1cc2c(N3CCCc4cc(-c5cnn(C)c5)c(C(F)F)cc43)nc(N3CC4(COC4)C3)cc2n(C)c1=O [Example 224]	< 50 nM	> 50000 nM	–
Cc1cc2c(N3CCCc4cc(-c5cnn(C)c5)c(C(F)F)cc43)nc(N3CCC4(COC4)C3)cc2n(C)c1=O [Example 225]	< 50 nM	25 to 50 nM	–
Cc1cc2c(N3CCCc4cc(-c5cnn(C)c5)c(C(F)F)cc43)nc(N3CCOCC3)cc2n(C)c1=O [Example 234, 5-(7-(Difluoromethyl)-6-(1-methyl-1H-pyrazol-4-yl)-3,4-dihydroquinolin-1(2H)-yl)-1,3-dimethyl-7-morpholino-1,6-naphthyridin-2(1H)-one]	< 50 nM	< 25 nM	–
Cc1cc2c(N3CCCc4cc(-c5cnn(C)c5)c(C(F)F)cc43)nc(C3CCOCC3)cc2n(C)c1=O [Example 242, 5-(7-(Difluoromethyl)-6-(1-methyl-1H-pyrazol-4-yl)-3,4-dihydroquinolin-1(2H)-yl)-1,3-dimethyl-7-(tetrahydro-2H-pyran-4-yl)-1,6-naphthyridin-2(1H)-one]	< 50 nM	< 25 nM	–
